Source: ChEMBL document CHEMBL1201862, “PubChem BioAssay data set” (2004)
The source made the active and inactive calls.

Key:
[1] = molecular target: Eukaryotic translation initiation factor 4E (Mus musculus, UniProt P63073); assay: blockers of eIF4G binding by eIF4E – biochemical, TR-FRET, dose response (AID 855); assay type: functional;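 further: potency for disrupting eIF4E binding to eIF4GI seen as loss of FRET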
[2] = molecular target: Melanin-concentrating hormone receptor 1 (Homo sapiens, UniProt Q99705); assay: Late-stage fluorescence-based counterscreen for antagonists of the G-protein coupled receptor 7 (GPR7): cell-based dose response assay to identify antagonists of the melanin-concentrating hormone receptor 1 (MCHR1). [Related pubchem assays (depositor defined):AID1861, AID1880, AID1952, AID2148, AID2251, AID2257, AID485339]; assay type: functional;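 further: stimulated with 30 nM MCH peptide agonist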
[3] = molecular target: T1, Neuropeptides B/W receptor type 1 (Homo sapiens, UniProt P48145); assay: human NPBW1 receptor blockade, IC50 – cell-based, fluorescence, dose response, late-stage follow-up (AID 463251); assay type: functional
T1 sequence (P48145 whole entry): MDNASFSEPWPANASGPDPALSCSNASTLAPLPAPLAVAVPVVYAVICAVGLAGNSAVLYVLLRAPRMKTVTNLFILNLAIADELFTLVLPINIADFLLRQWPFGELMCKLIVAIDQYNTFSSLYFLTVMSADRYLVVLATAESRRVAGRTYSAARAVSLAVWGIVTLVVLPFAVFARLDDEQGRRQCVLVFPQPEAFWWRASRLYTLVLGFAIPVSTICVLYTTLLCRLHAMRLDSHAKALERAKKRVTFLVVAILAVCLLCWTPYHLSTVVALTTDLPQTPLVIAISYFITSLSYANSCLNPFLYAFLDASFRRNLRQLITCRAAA

Streptococcus [4] = assay: GAS UMAA2166 growth inhibition – luminescence, BacTiterGlo, counter-screen for streptokinase expression inhibitor project, dose response (AID 1915); assay type: functional, organism-based;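 further: potency for reduction of bacterial viability or growth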
[5] = Luminescence Cell-Based Dose Retest to Confirm Inhibitors of Cancer Stem Cells. [Related pubchem assays (depositor defined):AID2717, AID2721]; assay type: functional; settings: Homo sapiens
Streptococcus [6] = assay: Luminescence Microorganism-Based Dose Response Follow up to Identify Compounds Cytotoxic to Streptococcus. [Related pubchem assays: 1677 (Project Summary), 1915, 1914, 1902 (Retest at Dose), 1900 (Counter Screen), 1662 (Primary HTS)]; assay type: functional, organism-based
[7] = test system: Streptococcus sp. 'group A'; assay: Streptococcus pyogenes SK(-)GAS viability under kanamycin – luminescence, BacTiterGlo, confirmation, counter-screen for streptokinase expression inhibitor project, dose response (AID 1900); assay type: functional, organism-based
Streptokinase A = molecular target: T2, Streptokinase A (Streptococcus pyogenes serotype M1, UniProt P10520); assay: viability-normalized secreted streptokinase activity reduction – plasminogen activation absorbance, OD405, dose response (AID 1914); assay type: functional, Streptococcus pyogenes M1 GAS;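 further: secreted streptokinase activity via plasminogen activation per viability signal from cell pellet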
T2 sequence (P10520 whole entry): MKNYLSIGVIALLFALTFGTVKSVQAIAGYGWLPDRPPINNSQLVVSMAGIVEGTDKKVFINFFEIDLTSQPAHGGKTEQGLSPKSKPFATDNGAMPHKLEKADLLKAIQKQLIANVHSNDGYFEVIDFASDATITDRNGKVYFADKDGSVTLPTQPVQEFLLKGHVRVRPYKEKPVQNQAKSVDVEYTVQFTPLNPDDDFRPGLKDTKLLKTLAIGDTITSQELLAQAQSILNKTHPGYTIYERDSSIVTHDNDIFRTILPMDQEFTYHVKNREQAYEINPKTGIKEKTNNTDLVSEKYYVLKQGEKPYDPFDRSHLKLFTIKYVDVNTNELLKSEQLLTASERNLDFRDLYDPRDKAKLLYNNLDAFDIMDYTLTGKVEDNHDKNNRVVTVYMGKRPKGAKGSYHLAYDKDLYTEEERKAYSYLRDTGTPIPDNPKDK

[8] = molecular target: Scavenger receptor class B member 1 (Mus musculus, UniProt Q61009); assay: mouse SR-BI DiI-HDL uptake blockers – ldlA[mSR-BI] cells, fluorescence, cherry pick, dose response (AID 493194); assay type: functional, cell-based;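 further: cellular uptake of fluorescent DiI-labeled HDL measured as cell fluorescence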
[9] = HPDE-C7 pancreatic duct cell viability loss – fluorescence, HTS (AID 430); assay type: functional, cell-based; settings: Homo sapiens
[10] = molecular target: Serine/threonine-protein phosphatase (Homo sapiens, UniProt Q9BPW0); assay: Counterscreen for inhibitors of PP1: fluorescence-based biochemical high throughput dose response assay to identify inhibitors of Protein Phosphatase 5 (PP5). [Related pubchem assays: 2034 (Summary (PP5 inhibitors)), 1987 (PP5 inhibitors in singlate), 2235 (PP1 inhibitors in singlate)]
[11] = fluconazole-exposed Candida albicans growth modulators – fluorescence, retest, confirmation (AID 2467); assay type: functional, cell-based
[12] = molecular target: T3, Mannose-6-phosphate isomerase (Homo sapiens, UniProt P34949); assay: MPI inhibition at elevated mannose 6-phosphate – biochemical, fluorescence intensity, high mannose 6-phosphate, primary screen (AID 1220)
T3 sequence (P34949 whole entry): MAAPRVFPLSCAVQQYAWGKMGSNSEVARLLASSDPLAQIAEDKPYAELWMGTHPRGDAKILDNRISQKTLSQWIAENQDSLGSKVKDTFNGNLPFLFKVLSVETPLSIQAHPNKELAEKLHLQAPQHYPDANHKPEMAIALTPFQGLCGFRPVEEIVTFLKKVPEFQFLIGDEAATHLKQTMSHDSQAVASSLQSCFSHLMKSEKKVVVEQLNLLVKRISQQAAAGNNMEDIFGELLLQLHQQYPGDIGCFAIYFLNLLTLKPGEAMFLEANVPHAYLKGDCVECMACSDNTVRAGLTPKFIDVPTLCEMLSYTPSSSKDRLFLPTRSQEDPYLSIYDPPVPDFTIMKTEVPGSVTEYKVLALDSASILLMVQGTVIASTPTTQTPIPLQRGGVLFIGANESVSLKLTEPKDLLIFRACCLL

[13] = molecular target: T4, Heat shock factor protein 1 (Mus musculus, UniProt P38532); assay: enhancement of HSF1-driven luciferase signal – cell-based, NIH3T3, luminescence, dose retest, confirmation (AID 435004); assay type: functional;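 further: stress induced by proteasome inhibitor MG132 added 30 min after compound; luciferase reporter driven by HSF1 response element in NIH3T3 cells; actives raise luminescence as potentiators of the MG132 stress response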
T4 sequence (P38532 whole entry): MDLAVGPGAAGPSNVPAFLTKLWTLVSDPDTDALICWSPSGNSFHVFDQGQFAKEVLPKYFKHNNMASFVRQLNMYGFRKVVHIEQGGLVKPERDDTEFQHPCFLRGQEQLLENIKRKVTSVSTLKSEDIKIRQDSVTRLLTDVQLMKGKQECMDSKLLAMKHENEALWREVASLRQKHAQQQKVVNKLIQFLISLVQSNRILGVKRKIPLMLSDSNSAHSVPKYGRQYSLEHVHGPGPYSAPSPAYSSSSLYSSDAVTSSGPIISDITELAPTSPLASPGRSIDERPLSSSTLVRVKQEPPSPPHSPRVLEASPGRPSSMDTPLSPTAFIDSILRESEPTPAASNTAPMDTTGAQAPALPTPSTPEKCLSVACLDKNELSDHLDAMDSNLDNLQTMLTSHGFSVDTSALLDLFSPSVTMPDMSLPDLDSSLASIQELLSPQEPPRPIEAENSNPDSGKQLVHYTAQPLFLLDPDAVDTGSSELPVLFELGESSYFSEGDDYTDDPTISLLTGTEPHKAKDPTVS

[14] = NIH-3T3 fibroblast cytotoxicity, dose response, cytotoxicity control, cell-based, fluorescence, Alamar Blue, secondary assay (AID 2327); assay type: functional;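 further: NIH-3T3 mouse fibroblasts cultured with fluconazole at 8 µg/mL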
Estrogen receptor beta = Estrogen receptor beta (Homo sapiens, UniProt Q92731); assay: blockers of SRC-3 recruitment to ERβ – biochemical, ELISA, streptavidin-HRP readout, orthogonal assay, confirmation (AID 1060)
[15] = molecular target: Serine/threonine-protein phosphatase PP1-alpha catalytic subunit (Homo sapiens, UniProt P62136); assay: inhibition of protein phosphatase 1 activity – biochemical, fluorescence, dose response (AID 2403);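 further: phosphatase turnover of OMFP into fluorescent 3-O-methylfluorescein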
[16] = viability loss of HPDE-C7K cells – cell-based, fluorescence, HTS, primary screen (AID 431); assay type: functional; settings: Homo sapiens
[17] = molecular target: 72 kDa type IV collagenase (Homo sapiens, UniProt P08253); assay: Dose Response validation of uHTS RPN11 inhibitor hits using a MMP-2 Fluorescence assay.; assay type: functional
[18] = molecular target: Induced myeloid leukemia cell differentiation protein Mcl-1 (Homo sapiens, UniProt Q07820); assay: blockers of MCL1 binding to BIM peptide – biochemical, fluorescence polarization, BIM-BH3 peptide, 1536-well, dose response (AID 2217)
Hexokinase HKDC1 = Hexokinase HKDC1 (Homo sapiens, UniProt Q2TB90); assay: inhibition of HKDC1 glucose phosphorylation – biochemical, W721R variant, dose response (AID 504729); assay type: functional
Bcl-2-like protein 1 = Bcl-2-like protein 1 (Homo sapiens, UniProt Q07817); assay: blockers of BCLXL peptide binding – biochemical, fluorescence polarization, 1536-well, selectivity assay for MCL1 inhibitor project, dose response (AID 2218)
[19] = molecular target: DNA (cytosine-5)-methyltransferase 1 (Homo sapiens, UniProt P26358); assay: inhibition of DNA methylation by DNMT1 – biochemical, fluorescent molecular beacon, confirmation (AID 602386); assay type: functional
[20] = molecular target: 26S proteasome non-ATPase regulatory subunit 14 (Homo sapiens, UniProt O00487); assay: inhibition of proteasome subunit RPN11 – biochemical, fluorescence polarization, uHTS hits, confirmation (AID 602368); assay type: functional
Prothrombin = Prothrombin (Bos taurus, UniProt P00735); assay: thrombin protease inhibitors – biochemical, fluorescence polarization, uHTS hits, dose response (AID 602369); assay type: functional

Sequence of Induced myeloid leukemia cell differentiation protein Mcl-1 (Q07820 whole entry): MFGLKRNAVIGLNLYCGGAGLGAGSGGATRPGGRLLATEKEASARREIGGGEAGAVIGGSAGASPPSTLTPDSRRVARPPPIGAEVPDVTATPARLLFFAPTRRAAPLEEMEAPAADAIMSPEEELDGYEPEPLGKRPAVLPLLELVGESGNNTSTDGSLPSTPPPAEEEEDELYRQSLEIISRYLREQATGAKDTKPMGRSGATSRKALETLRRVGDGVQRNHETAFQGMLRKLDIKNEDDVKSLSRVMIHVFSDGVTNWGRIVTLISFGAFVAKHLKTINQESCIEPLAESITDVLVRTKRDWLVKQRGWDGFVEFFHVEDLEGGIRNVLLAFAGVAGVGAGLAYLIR
Sequence of 26S proteasome non-ATPase regulatory subunit 14 (O00487 whole entry): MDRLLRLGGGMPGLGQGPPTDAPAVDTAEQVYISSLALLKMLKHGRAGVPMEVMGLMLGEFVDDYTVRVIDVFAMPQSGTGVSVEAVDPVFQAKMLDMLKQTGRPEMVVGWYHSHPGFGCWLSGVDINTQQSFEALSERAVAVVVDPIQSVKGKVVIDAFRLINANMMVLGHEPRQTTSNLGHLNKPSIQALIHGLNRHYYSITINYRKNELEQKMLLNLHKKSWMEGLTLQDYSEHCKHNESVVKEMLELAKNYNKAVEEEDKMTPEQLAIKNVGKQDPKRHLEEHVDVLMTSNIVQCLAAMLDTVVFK
Sequence of 72 kDa type IV collagenase (P08253 whole entry): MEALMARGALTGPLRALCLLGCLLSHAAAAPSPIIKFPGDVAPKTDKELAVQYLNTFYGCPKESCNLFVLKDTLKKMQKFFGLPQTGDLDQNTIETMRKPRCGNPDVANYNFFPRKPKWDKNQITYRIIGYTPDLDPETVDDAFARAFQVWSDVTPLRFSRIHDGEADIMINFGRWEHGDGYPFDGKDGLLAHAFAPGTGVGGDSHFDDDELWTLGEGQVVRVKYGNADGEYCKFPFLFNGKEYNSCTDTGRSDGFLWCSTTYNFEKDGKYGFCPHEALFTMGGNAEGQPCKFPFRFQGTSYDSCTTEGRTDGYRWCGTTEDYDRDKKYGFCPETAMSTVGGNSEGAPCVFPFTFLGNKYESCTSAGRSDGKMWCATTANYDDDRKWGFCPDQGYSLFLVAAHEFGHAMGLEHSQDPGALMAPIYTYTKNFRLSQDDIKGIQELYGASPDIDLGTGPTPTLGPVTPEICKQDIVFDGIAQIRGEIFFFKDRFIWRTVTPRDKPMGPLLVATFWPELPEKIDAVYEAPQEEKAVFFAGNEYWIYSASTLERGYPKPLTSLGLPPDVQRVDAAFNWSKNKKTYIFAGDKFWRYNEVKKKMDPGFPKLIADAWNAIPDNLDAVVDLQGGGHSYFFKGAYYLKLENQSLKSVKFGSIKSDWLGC
Sequence of Scavenger receptor class B member 1 (Q61009 whole entry): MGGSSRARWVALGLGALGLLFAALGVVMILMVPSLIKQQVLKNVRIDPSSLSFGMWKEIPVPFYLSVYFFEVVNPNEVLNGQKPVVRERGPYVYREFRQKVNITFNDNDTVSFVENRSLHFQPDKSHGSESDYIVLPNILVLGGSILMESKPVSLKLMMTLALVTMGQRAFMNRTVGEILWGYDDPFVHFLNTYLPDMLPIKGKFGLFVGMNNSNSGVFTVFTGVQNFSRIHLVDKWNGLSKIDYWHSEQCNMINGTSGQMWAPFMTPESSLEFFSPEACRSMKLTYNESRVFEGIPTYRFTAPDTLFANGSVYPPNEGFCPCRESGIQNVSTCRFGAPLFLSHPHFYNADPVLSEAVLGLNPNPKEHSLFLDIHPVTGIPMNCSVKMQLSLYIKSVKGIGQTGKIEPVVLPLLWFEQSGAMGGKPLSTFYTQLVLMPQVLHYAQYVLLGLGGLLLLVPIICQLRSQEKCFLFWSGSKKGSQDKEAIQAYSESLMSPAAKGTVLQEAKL
Sequence of Bcl-2-like protein 1 (Q07817 whole entry): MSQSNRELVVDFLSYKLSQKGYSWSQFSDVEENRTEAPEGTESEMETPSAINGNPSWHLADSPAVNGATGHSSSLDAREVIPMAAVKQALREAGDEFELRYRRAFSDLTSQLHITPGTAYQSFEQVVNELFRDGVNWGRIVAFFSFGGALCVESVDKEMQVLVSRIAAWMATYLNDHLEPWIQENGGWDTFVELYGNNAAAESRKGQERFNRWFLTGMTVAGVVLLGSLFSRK
Sequence of Melanin-concentrating hormone receptor 1 (Q99705 whole entry): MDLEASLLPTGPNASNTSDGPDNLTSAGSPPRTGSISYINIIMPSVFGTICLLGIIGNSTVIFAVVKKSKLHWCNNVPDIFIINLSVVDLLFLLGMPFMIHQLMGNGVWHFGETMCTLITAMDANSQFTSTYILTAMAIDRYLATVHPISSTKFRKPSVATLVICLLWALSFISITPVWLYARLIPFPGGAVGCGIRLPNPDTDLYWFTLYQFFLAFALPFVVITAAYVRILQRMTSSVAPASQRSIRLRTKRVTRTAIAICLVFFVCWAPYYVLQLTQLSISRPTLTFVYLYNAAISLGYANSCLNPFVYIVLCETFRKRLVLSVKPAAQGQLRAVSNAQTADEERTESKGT
Sequence of Hexokinase HKDC1 (Q2TB90 whole entry): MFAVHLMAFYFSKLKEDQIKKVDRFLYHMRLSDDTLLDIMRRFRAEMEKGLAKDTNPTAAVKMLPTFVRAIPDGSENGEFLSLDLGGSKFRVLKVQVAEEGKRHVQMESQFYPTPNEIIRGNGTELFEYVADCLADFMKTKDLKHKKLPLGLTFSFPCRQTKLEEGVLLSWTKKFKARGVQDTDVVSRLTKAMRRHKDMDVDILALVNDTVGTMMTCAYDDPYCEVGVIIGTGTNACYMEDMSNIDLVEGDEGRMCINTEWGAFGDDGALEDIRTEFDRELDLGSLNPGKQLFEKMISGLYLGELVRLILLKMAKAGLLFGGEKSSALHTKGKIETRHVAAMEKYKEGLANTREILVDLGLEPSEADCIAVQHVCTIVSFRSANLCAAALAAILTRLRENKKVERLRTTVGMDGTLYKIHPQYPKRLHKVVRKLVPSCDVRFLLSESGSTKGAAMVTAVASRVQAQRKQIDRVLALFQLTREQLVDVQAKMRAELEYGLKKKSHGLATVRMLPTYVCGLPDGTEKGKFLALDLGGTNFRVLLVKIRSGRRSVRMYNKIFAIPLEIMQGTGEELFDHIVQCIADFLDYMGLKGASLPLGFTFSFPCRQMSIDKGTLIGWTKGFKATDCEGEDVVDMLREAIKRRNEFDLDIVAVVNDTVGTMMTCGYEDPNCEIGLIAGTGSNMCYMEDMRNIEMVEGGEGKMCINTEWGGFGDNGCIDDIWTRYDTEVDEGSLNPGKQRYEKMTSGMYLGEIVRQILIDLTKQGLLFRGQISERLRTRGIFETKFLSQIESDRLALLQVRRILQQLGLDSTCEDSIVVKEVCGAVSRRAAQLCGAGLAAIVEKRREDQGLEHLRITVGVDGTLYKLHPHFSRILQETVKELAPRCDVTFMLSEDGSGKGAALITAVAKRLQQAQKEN
Sequence of Eukaryotic translation initiation factor 4E (P63073 whole entry): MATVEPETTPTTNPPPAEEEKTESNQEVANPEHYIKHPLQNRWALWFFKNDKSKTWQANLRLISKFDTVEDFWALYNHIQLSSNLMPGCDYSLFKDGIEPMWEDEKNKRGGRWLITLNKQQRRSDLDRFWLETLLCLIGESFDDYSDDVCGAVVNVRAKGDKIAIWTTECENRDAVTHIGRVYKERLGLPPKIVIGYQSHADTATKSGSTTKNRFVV
Sequence of Estrogen receptor beta (Q92731 whole entry): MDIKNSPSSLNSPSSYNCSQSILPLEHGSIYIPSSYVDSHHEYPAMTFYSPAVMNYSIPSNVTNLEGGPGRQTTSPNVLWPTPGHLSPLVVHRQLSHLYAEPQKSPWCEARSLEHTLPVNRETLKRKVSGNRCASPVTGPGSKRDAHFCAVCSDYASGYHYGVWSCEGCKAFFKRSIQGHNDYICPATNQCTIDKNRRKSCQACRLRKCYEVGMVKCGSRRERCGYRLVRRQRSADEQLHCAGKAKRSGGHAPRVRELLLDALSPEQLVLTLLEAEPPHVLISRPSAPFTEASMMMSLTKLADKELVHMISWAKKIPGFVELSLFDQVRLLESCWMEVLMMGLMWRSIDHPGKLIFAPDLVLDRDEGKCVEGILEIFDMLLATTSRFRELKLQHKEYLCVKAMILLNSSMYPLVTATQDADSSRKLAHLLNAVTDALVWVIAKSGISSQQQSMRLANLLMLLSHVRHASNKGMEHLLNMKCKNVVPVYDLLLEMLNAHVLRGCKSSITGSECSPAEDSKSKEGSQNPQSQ
Sequence of Serine/threonine-protein phosphatase (Q9BPW0 whole entry): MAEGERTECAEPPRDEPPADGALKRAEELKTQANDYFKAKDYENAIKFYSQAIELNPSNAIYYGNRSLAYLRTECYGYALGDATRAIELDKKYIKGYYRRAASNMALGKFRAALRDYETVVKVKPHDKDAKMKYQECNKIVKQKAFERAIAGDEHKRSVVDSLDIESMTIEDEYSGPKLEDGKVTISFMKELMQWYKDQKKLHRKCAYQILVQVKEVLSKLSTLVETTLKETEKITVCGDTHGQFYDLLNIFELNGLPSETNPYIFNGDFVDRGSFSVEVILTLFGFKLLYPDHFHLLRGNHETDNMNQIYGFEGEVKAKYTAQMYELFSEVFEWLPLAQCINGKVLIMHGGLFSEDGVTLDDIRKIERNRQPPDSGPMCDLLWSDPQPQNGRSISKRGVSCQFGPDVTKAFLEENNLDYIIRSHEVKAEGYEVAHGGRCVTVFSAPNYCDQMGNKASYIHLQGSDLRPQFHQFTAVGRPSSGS
Sequence of Serine/threonine-protein phosphatase PP1-alpha catalytic subunit (P62136 whole entry): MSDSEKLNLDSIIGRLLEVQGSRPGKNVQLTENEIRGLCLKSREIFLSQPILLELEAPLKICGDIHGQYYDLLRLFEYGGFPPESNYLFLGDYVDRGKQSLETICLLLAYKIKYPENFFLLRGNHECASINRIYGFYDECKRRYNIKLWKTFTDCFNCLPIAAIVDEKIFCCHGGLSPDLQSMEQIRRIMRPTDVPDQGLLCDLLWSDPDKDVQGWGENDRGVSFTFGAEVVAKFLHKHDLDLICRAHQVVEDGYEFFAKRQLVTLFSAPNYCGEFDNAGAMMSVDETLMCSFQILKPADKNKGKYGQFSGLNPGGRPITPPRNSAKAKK

O=C(/C=N/O)Nc1ccc(F)cc1
IC50 [1]: > 64 µM (inactive)

CCOc1ccc(CCOc2c(Cl)cnn(-c3ccc(C)cc3)c2=O)cc1OCC
IC50 [2]: 14.5 µM (inactive)
IC50 [3]: 5.5 µM (active)

CCCCn1c(=O)c(C(=O)NCc2ccccc2)c(O)c2ccccc21
EC50 (Streptococcus [4]): > 150 µM (inconclusive)
AC50 [5]: 8.37 µM (active)
EC50 (Streptococcus [6]): > 500 µM (not active)
EC50 [7]: 17.5 µM (active)
EC50 (Streptokinase A): 6.35 µM (active)

OC1CCN(c2cc(-c3ccccc3)nc3cc(-c4ccc(F)cc4)nn23)CC1
AC50 [5]: 4.72 µM (active)
AC50 [8]: 11.8 µM (active)

Oc1c(C(c2ccccn2)N2CCOCC2)ccc2cccnc12 (stereo unspecified)
EC50 [9]: > 20 µM (not active)
IC50 [10]: > 67 µM (not active)
EC50 [11]: > 38 µM (not active)
IC50 [12]: > 50 µM (not active)
EC50 [13]: 74.8 µM (active)
EC50 [14]: > 150 µM (inactive)
IC50 (Estrogen receptor beta): > 50 µM (not active)
IC50 [15]: 2.36 µM (active)
EC50 [16]: > 20 µM (not active)

N#Cc1c(SCC(=O)Nc2nc3ccc(Br)cc3s2)sc2c(O)cc(=O)[nH]c12
IC50 [17]: 3.94 µM (active)
IC50 [18]: > 109 µM (not active)
IC50 (Hexokinase HKDC1): 24.8 µM (inactive)
IC50 (Bcl-2-like protein 1): > 109 µM (not active)
IC50 [19]: 8.28 µM (active)
IC50 [20]: 12.8 µM (active)
IC50 (Prothrombin): 71.2 µM (active)
